In US7098334B2 (Industrial Research Limited, priority 2002, dated 2006):

How the values were obtained:
MTAN = MTAN (Escherichia coli, UniProt P0AF12); test: Enzyme inhibition assay, MTAN (slow-onset inhibition constants); format: biochemical; conditions: MTAN
Experimental: Ki as shown in Tables 1 and 2 is the initial inhibition constant formed by the enzyme-inhibitor complex, and Ki* is the equilibrium dissociation constant for inhibition that is observed following a period of slow-onset, tight binding inhibition. Ki* is the biologically effective constant.
Enzyme assays were conducted to assess the effectiveness of selected compounds of the invention as inhibitors of MTAP and MTAN.
Inhibitors.—Inhibitor concentrations were determined by the UV absorbance spectrum using the published millimolar extinction coefficients for 9-dazadenine of 8.5 at 275 nm at pH 7.0.
Assays.—The direct spectrophotometric assay for the conversion of MTA into adenine was measured as the decrease in absorbance at 274 nm. At 274 nm, Δε between MTA and adenine is at a maximum and produces a spectral change of 1.6 absorbance units/cm/mM (DeWolf, W. E. Jr., Fullin, F. A., and Schramm, V. L. (1979) J. Biol. Chem. 254, 10868–10875)
Slow-Onset Inhibition and Inhibition Constants.—The kinetics for slow onset inhibition and the Ki measurement was carried out by adding a known concentration of enzyme (1–5 nM) to a reaction mixture containing a substrate concentration of 200 μM. This concentration corresponds to an OD of 0.7–1.1 at […]. The formation of product was monitored as a decrease in absorbance at 274 nm. Conditions for Ki* determination used high concentrations of substrate. Two controls, one having no inhibitor and the other no enzyme were included in the experiment. The Ki values MTAP for the various compounds were calculated by fitting in the ratio of initial rates in the presence of inhibitor to without any inhibitor versus the inhibitor concentration, for the known Km and substrate concentration into the following expression.
Where Vo′ is the rate in the presence of inhibitor • Vo rate in the absence of inhibitor • [I] inhibitor concentration • And [S] is the substrate concentration
And the Ki* was calculated by fitting to the following expression
Where Vs′ is the steady-state rate following attainment of equilibrium in the presence inhibitor, and Vs is the steady-state rate in the control having no inhibitor. Both these equations are valid for competitive type inhibition.

[1] = tested on: Lewis lung carcinoma cells; test: Radiation sensitizing effect on Lewis lung carcinoma cells; format: cell-based; conditions: 5′-methylthio-ImmA at 2 μM; 10 Gy X-ray; cells counted by Trypan Blue after 48 hrs
Experimental: Lewis lung carcinoma cells (1×10^6) were plated and allowed to adhere overnight in 2 mL of DMEL medium substituted with 10% fetal bovine serum, 1% Pen-Strep, 2.5% Na-Pyruvate, 1% non-essential amino acids in 6 well plates. 50 μM MTA, 50 μM MTA+2 μM 5′-methylthio-ImmA or 2 μM 5′-methylthio-ImmA was then added in 1 mL of the same medium as indicated. Control wells were treated with medium without any additions. This treatment was allowed to continue for 6 hours. In each experiment one set of treated cells were subjected to 10 Gy of X-ray irradiation and a control set received no irridation. Both irradiated and unirradiated cells were then cultured for another 48 hours in the presence of MTA±5′-methylthio-ImmA. Manual counting of living and dead cells was done by Trypan Blue dye exclusion following 48 hrs of growth. (Approximate doubling time for Lewis Lung cells was 24 hours.)

mouse liver MTAP = molecular target: T1, mouse liver MTAP (Mus musculus, UniProt Q9CQ65); test: MTAP activity in liver extracts of treated mice; format: in vivo
T1 construct: from tissue; host or cells: mouse liver protein extract
T1 sequence (Q9CQ65 1-283): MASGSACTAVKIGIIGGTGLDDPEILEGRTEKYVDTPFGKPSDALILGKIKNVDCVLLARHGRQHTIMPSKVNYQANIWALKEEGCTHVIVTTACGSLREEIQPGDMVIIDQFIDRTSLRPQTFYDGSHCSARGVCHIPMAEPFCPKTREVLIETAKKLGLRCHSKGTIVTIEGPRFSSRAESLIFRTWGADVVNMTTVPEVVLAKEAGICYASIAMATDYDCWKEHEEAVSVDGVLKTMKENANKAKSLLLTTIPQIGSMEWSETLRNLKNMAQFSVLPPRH
Experimental: Following 30 to 60 min, blood was collected or mice were sacrificed and the liver removed for tissue analysis. MTAP activity in mouse blood was measured by the conversion of radioactive MTA to radioactive 5-methylthio-α-D-ribose 1-phosphate (MTR-1P). The assay mixture contained 50 mM phosphate buffer, 1 mM dithiothreitol, 26 μM [5′-^14C]MTA with specific radioactivity of 2 μCi/μmole, 0.5% triton X-100, and the desired amount of tissue sample, in a total volume of 100 μL. Reactions were stopped at various times by the addition of perchloric acid to decrease the pH to 2.0. The protein precipitate was removed by centrifugation, and the supernatant was neutralized to near pH 7 before being placed on a charcoal column. The column was eluted with buffer near pH 7. The product MTR-1P elutes, while unreacted [5′-^14C]MTA remains on the column. The amount of MTAP activity from control and treated mice is compared.

[2] = oral administration of 10 μmoles

MTAN, sequence (P0AF12 whole entry): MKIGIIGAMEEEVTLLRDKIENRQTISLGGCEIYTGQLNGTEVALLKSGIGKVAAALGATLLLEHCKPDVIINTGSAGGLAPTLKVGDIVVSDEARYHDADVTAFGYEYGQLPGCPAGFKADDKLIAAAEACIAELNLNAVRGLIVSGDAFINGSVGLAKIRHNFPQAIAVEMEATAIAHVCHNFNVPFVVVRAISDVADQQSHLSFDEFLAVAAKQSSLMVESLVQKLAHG

SMILES: CSC[C@H]1N[C@@H](c2c[nH]c3c(N)ncnc23)C(O)[C@H]1O (some centres unmarked) [5′-methylthio-ImmA]
- Ki (MTAN; Ki*, equilibrium dissociation constant after slow-onset, tight binding inhibition): 0.077 ± 0.02 nM
- Ki (MTAN; Ki, initial inhibition constant): 0.13 ± 0.012 nM
- Ki* (MTAN; equilibrium dissociation constant after slow-onset, tight binding inhibition): in the pM range
- effect on cell growth and irradiation damage (FIG. 2) [1]: acts in a similar manner to 50 μM MTA
- reduction of MTAP activity of liver extract (mouse liver MTAP; intraperitoneal injection of 0.1 micromole): 70%
- reduction of MTAP activity of liver extract (mouse liver MTAP; intraperitoneal injection of 1.0 micromole): 77%
- MTAP activity in liver extracts (in words) (mouse liver MTAP; intravenous injection): no detectable MTAP activity
- inhibition of liver MTAP (mouse liver MTAP; intravenous injection): > 95%
- inhibition of liver MTAP (mouse liver MTAP; [2]): 90%
- oral availability to MTAP inside tissues (in words) (mouse liver MTAP; [2]): orally available
- rate of conversion of MTA to products by MTAP in extracts of liver (mouse liver MTAP; oral administration of 10 μmoles, control 1.0): 0.09 nMole/min/mg of liver protein extract
